Assay results as given in PubChem BioAssay (NCI).
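48-hour exposure; five concentrations; linearly interpolated endpoints. Abbreviation: GI50, concentration required for 50% inhibition of growth. TGI: concentration producing complete growth inhibition.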

Legend:
Experiment in all cases: NCI tumour cell line growth inhibition, 48 h; in the data active means GI50 below about 0.43 µM; inactive means the rest
786-0 renal = system: 786-0 renal
A498 renal = system: A498 renal
A549 NSCLC = system: A549 NSCLC
ACHN renal = system: ACHN renal
BT-549 breast = system: BT-549 breast
CAKI-1 renal = system: CAKI-1 renal
CCRF-CEM leukemia = system: CCRF-CEM leukemia
COLO 205 colon = system: COLO 205 colon
DU-145 prostate = system: DU-145 prostate
HCC-2998 colon = system: HCC-2998 colon
HCT-116 colon = system: HCT-116 colon
HCT-15 colon = system: HCT-15 colon
HL-60(TB) leukemia = system: HL-60(TB) leukemia
HOP-62 NSCLC = system: HOP-62 NSCLC
HOP-92 NSCLC = system: HOP-92 NSCLC
HS 578T breast = system: HS 578T breast
HT29 colon = system: HT29 colon
IGROV1 ovarian = system: IGROV1 ovarian
K-562 leukemia = system: K-562 leukemia
KM12 colon = system: KM12 colon
LOX IMVI melanoma = system: LOX IMVI melanoma
M14 melanoma = system: M14 melanoma
MALME-3M melanoma = system: MALME-3M melanoma
MCF7 breast = system: MCF7 breast
MDA-MB-231 breast = system: MDA-MB-231 breast
MDA-MB-435 = system: MDA-MB-435
MOLT-4 leukemia = system: MOLT-4 leukemia

CCOC(=O)C1=C(N)CCC1C (centres undefined)
> 100 µM: TGI (786-0 renal) | TGI (A498 renal) | TGI (A549 NSCLC) | TGI (ACHN renal) | TGI (BT-549 breast) | TGI (CAKI-1 renal) | TGI (CCRF-CEM leukemia) | TGI (COLO 205 colon) | TGI (DU-145 prostate) | TGI (HCC-2998 colon) | TGI (HCT-116 colon) | TGI (HCT-15 colon) | TGI (HL-60(TB) leukemia) | TGI (HOP-62 NSCLC) | TGI (HOP-92 NSCLC) | TGI (HS 578T breast) | TGI (HT29 colon) | TGI (IGROV1 ovarian) | TGI (K-562 leukemia) | TGI (KM12 colon) | TGI (LOX IMVI melanoma) | TGI (M14 melanoma) | TGI (MALME-3M melanoma) | TGI (MCF7 breast) | TGI (MDA-MB-231 breast) | TGI (MDA-MB-435)
65.5 µM: TGI (MOLT-4 leukemia)
inactive: GI50 (786-0 renal) > 100 µM | GI50 (A498 renal) > 100 µM | GI50 (A549 NSCLC) > 100 µM | GI50 (ACHN renal) > 100 µM | GI50 (BT-549 breast) > 100 µM | GI50 (CAKI-1 renal) > 100 µM | GI50 (CCRF-CEM leukemia) > 100 µM | GI50 (COLO 205 colon) > 100 µM | GI50 (DU-145 prostate) > 100 µM | GI50 (HCC-2998 colon) > 100 µM | GI50 (HCT-116 colon) > 100 µM | GI50 (HCT-15 colon) > 100 µM | GI50 (HL-60(TB) leukemia) 69.8 µM | GI50 (HOP-62 NSCLC) > 100 µM | GI50 (HOP-92 NSCLC) 41.2 µM | GI50 (HS 578T breast) > 100 µM | GI50 (HT29 colon) > 100 µM | GI50 (IGROV1 ovarian) > 100 µM | GI50 (K-562 leukemia) > 100 µM | GI50 (KM12 colon) > 100 µM | GI50 (LOX IMVI melanoma) > 100 µM | GI50 (M14 melanoma) > 100 µM | GI50 (MALME-3M melanoma) > 100 µM | GI50 (MCF7 breast) > 100 µM | GI50 (MDA-MB-231 breast) > 100 µM | GI50 (MDA-MB-435) > 100 µM | GI50 (MOLT-4 leukemia) 22.7 µM
